These results are taken from patent US7321059B2, “Compounds for use as surfactants” (Glaxo Group Limited, priority 2001, dated 2008).

Each structure is given as a SMILES string.

Data set [1] is described as follows: Content uniformity by dose through use testing of salmeterol xinafoate HFA 134a MDI formulations. As to conditions: salmeterol xinafoate 25 mcg per actuation in HFA 134a. The data set is classed as physicochemical. As for the experimental part: Salmeterol xinafoate formulations in HFA 134a, of strength 25 mcg per actuation, and 10% w/w (relative to drug) of the relevant surfactant compound of formula (I) (i.e. Example 3 or Example 4) prepared in aluminum cans with a crimped cap containing a metering valve using salmeterol xinafoate (8.7 mg), HFA 134a (18 g) and the relevant compound (0.87 mg). The control was prepared without the addition of a surfactant. The content uniformity of the formulations was assessed by dose through use testing. Testing was performed on a set of 10 cans/inhalers for each of the formulations, at “beginning of use” (BoU) and “end of use” (EoU). After each inhaler had been primed (4 shots fired to waste), actuations 1 and 2 (BoU) were collected. The next 116 actuations of each inhaler were then fired to waste using an automated method and actuations 119 and 120 (EoU) collected.
In the control there was a rise from beginning to end of use of 5.6 mcg. However, in the presence of the said surfactant compound this rise was reduced to 1.4 mcg for formulations incorporating a compound of Example 3 and 2.8 mcg for formulations incorporating a compound of Example 4. There was also a reduction in the percentage RSD at BoU for the formulations incorporating said surfactant compounds, thereby showing improved can to can reproducibility. Furthermore, there was also a reduction in the percentage RSD at EoU for the formulations incorporating Example 4. The presence of the said surfactants therefore improves the content uniformity of the inhaler.

A short description of data set [2]: Deposition of drug on valve and can of salmeterol xinafoate HFA 134a MDI formulations (HPLC). The data set is classed as physicochemical. The following applies: salmeterol xinafoate 1.50 mg in HFA 134a 3 g, surfactant 0.15 mg (10% w/w relative to drug). As for the experimental part:
Salmeterol xinafoate formulations in HFA 134a, strength 25 mcg per dose for each of 60 actuations, and 10% w/w (relative to drug) of the relevant surfactant compound of formula (I) (i.e. Example 3 or Example 4) were prepared in aluminum cans with a crimped cap containing a metering valve using salmeterol xinafoate (1.50 mg), HFA 134a (3 g) and the relevant compound (0.15 mg). The control was prepared without the addition of a surfactant.
Cans containing the said formulations for analysis were cooled to […] to liquefy the propellant therein. These were then opened and the contents collected in a vessel. The valve and the empty can were quantitatively washed. The washings for each component were kept separate. The amount of drug in: the contents removed from the can, the valve washings and the can washing was quantified by HPLC analysis.
Therefore, the presence of said surfactants in formulations seems to reduce the deposition of the drug on the can and valve.

Take `COCCOCCOCCOCCCOCC(OCCCOCCOCCOCCOC)C(=O)O` (centres unmarked) [Example 3, 17-(4,7,10,13-Tetraoxatetradec-1-yloxy)-2,5,8,11,15-pentaoxaoctadecan-18-oic acid]: the “BoU Dose % RSD” value in data set [1] (can to can reproducibility at beginning of use, 10% w/w surfactant, 10 cans) is 0.7%. Also, the “EoU Dose % RSD” value in data set [1] (can to can reproducibility at end of use, 10% w/w surfactant, 10 cans) is 13.9%. In addition, in data set [1] (10% w/w surfactant relative to drug), the “EoU − BoU (rise in dose from beginning to end of use)” value came to 1.4 µg. Further, the “BoU Dose” value in data set [1] (10% w/w surfactant relative to drug, beginning of use, actuations 1 and 2, 10 cans) came out at 15.8 µg. The “EoU Dose” value in data set [1] (10% w/w surfactant relative to drug, end of use, actuations 119 and 120, 10 cans) is 17.2 µg. Also, in data set [2] (aluminum can), the “Can Deposition” value is reported as 0.25 mg and the “Valve Deposition” value turned out to be 0.33 mg. Besides, in data set [2] (contents removed from can), the “Drug Content In Can” value came to 0.56 mg.
